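Assay format: 96-well plates, 48-hour exposure. GI50 is the concentration that inhibits growth by half. TGI marks complete inhibition of growth.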
How the values were obtained:
Assay in all cases: DTP human tumour cell line panel, 48 h
OVCAR-5 ovarian = test system: OVCAR-5 ovarian
LOX IMVI melanoma = test system: LOX IMVI melanoma
HS 578T breast = test system: HS 578T breast
U251 CNS = test system: U251 CNS
MCF7 breast = test system: MCF7 breast
NCI-H226 lung = test system: NCI-H226 lung
SW-620 colon = test system: SW-620 colon
MDA-MB-231 breast = test system: MDA-MB-231 breast
TK-10 renal = test system: TK-10 renal
NCI-H23 lung = test system: NCI-H23 lung
SF-539 CNS = test system: SF-539 CNS
MALME-3M melanoma = test system: MALME-3M melanoma
786-0 renal = test system: 786-0 renal
COLO 205 colon = test system: COLO 205 colon
SK-MEL-2 melanoma = test system: SK-MEL-2 melanoma
T-47D breast = test system: T-47D breast
A498 renal = test system: A498 renal
ACHN renal = test system: ACHN renal
OVCAR-4 ovarian = test system: OVCAR-4 ovarian
HCT-116 colon = test system: HCT-116 colon
SK-MEL-5 melanoma = test system: SK-MEL-5 melanoma
PC-3 prostate = test system: PC-3 prostate
BT-549 breast = test system: BT-549 breast
UACC-257 melanoma = test system: UACC-257 melanoma
SK-MEL-28 melanoma = test system: SK-MEL-28 melanoma
SF-295 CNS = test system: SF-295 CNS
IGROV1 ovarian = test system: IGROV1 ovarian
MOLT-4 leukemia = test system: MOLT-4 leukemia
DU-145 prostate = test system: DU-145 prostate
K-562 leukemia = test system: K-562 leukemia
A549 NSCLC = test system: A549 NSCLC
OVCAR-3 ovarian = test system: OVCAR-3 ovarian
OVCAR-8 ovarian = test system: OVCAR-8 ovarian
M14 melanoma = test system: M14 melanoma
HCC-2998 colon = test system: HCC-2998 colon
UO-31 renal = test system: UO-31 renal
NCI-H460 lung = test system: NCI-H460 lung
RXF 393 renal = test system: RXF 393 renal
HL-60(TB) leukemia = test system: HL-60(TB) leukemia
MDA-MB-435 = test system: MDA-MB-435
CAKI-1 renal = test system: CAKI-1 renal
HOP-92 NSCLC = test system: HOP-92 NSCLC
SN12C renal = test system: SN12C renal
EKVX NSCLC = test system: EKVX NSCLC
SNB-19 CNS = test system: SNB-19 CNS
SF-268 CNS = test system: SF-268 CNS
SNB-75 CNS = test system: SNB-75 CNS
HT29 colon = test system: HT29 colon
NCI-H522 lung = test system: NCI-H522 lung
KM12 colon = test system: KM12 colon
SK-OV-3 ovarian = test system: SK-OV-3 ovarian
NCI/ADR-RES ovarian = test system: NCI/ADR-RES ovarian
HOP-62 NSCLC = test system: HOP-62 NSCLC
CCRF-CEM leukemia = test system: CCRF-CEM leukemia
HCT-15 colon = test system: HCT-15 colon
UACC-62 melanoma = test system: UACC-62 melanoma

O=[N+]([O-])c1cnc(Sc2ccncn2)s1
GI50 (OVCAR-5 ovarian): 14 µM | TGI (OVCAR-5 ovarian): 28.3 µM | GI50 (LOX IMVI melanoma): 2.65 µM | TGI (LOX IMVI melanoma): 6.7 µM | GI50 (HS 578T breast): 2.37 µM | TGI (HS 578T breast): 5.59 µM | GI50 (U251 CNS): 3.49 µM | TGI (U251 CNS): 11.5 µM | GI50 (MCF7 breast): 1.65 µM | TGI (MCF7 breast): 3.45 µM | GI50 (NCI-H226 lung): 8.37 µM | TGI (NCI-H226 lung): 34 µM | GI50 (SW-620 colon): 1.66 µM | TGI (SW-620 colon): 3.29 µM | GI50 (MDA-MB-231 breast): 3.98 µM | TGI (MDA-MB-231 breast): 15.1 µM | GI50 (TK-10 renal): 2.14 µM | TGI (TK-10 renal): 4.22 µM | GI50 (NCI-H23 lung): 8.99 µM | TGI (NCI-H23 lung): 26.4 µM | GI50 (SF-539 CNS): 5.61 µM | TGI (SF-539 CNS): 14.9 µM | GI50 (MALME-3M melanoma): 2.07 µM | TGI (MALME-3M melanoma): 3.94 µM | GI50 (786-0 renal): 6.72 µM | TGI (786-0 renal): 18.4 µM | GI50 (COLO 205 colon): 1.75 µM | TGI (COLO 205 colon): 3.35 µM | GI50 (SK-MEL-2 melanoma): 7.99 µM | TGI (SK-MEL-2 melanoma): 21.9 µM | GI50 (T-47D breast): 2.16 µM | TGI (T-47D breast): 4.68 µM | GI50 (A498 renal): 18.6 µM | TGI (A498 renal): 33.3 µM | GI50 (ACHN renal): 1.81 µM | TGI (ACHN renal): 3.24 µM | GI50 (OVCAR-4 ovarian): 1.76 µM | TGI (OVCAR-4 ovarian): 3.27 µM | GI50 (HCT-116 colon): 1.84 µM | TGI (HCT-116 colon): 3.33 µM | GI50 (SK-MEL-5 melanoma): 4.86 µM | TGI (SK-MEL-5 melanoma): 14.6 µM | GI50 (PC-3 prostate): 2.73 µM | TGI (PC-3 prostate): 17 µM | GI50 (BT-549 breast): 4.84 µM | TGI (BT-549 breast): 9.55 µM | GI50 (UACC-257 melanoma): 2.94 µM | TGI (UACC-257 melanoma): 7.5 µM | GI50 (SK-MEL-28 melanoma): 1.98 µM | TGI (SK-MEL-28 melanoma): 3.69 µM | GI50 (SF-295 CNS): 18 µM | TGI (SF-295 CNS): 41 µM | GI50 (IGROV1 ovarian): 1.71 µM | TGI (IGROV1 ovarian): 3.35 µM | GI50 (MOLT-4 leukemia): 2 µM | TGI (MOLT-4 leukemia): 5.04 µM | GI50 (DU-145 prostate): 1.8 µM | TGI (DU-145 prostate): 3.22 µM | GI50 (K-562 leukemia): 1.31 µM | TGI (K-562 leukemia): 3.8 µM | GI50 (A549 NSCLC): 10.1 µM | TGI (A549 NSCLC): 27.1 µM | GI50 (OVCAR-3 ovarian): 1.74 µM | TGI (OVCAR-3 ovarian): 3.16 µM | GI50 (OVCAR-8 ovarian): 3.94 µM | TGI (OVCAR-8 ovarian): 13.1 µM | GI50 (M14 melanoma): 2.76 µM | TGI (M14 melanoma): 7.25 µM | GI50 (HCC-2998 colon): 5.46 µM | TGI (HCC-2998 colon): 10.7 µM | GI50 (UO-31 renal): 1.75 µM | TGI (UO-31 renal): 3.2 µM | GI50 (NCI-H460 lung): 8.12 µM | TGI (NCI-H460 lung): 25.9 µM | GI50 (RXF 393 renal): 0.312 µM | TGI (RXF 393 renal): 1.68 µM | GI50 (HL-60(TB) leukemia): 1.69 µM | TGI (HL-60(TB) leukemia): 4.18 µM | GI50 (MDA-MB-435): 2.95 µM | TGI (MDA-MB-435): 8.76 µM | GI50 (CAKI-1 renal): 1.64 µM | TGI (CAKI-1 renal): 3.07 µM | GI50 (HOP-92 NSCLC): 1.99 µM | TGI (HOP-92 NSCLC): 4.4 µM | GI50 (SN12C renal): 3.24 µM | TGI (SN12C renal): 8.41 µM | GI50 (EKVX NSCLC): 6.46 µM | TGI (EKVX NSCLC): 22.1 µM | GI50 (SNB-19 CNS): 15.9 µM | TGI (SNB-19 CNS): 31.9 µM | GI50 (SF-268 CNS): 2.65 µM | TGI (SF-268 CNS): 7.29 µM | GI50 (SNB-75 CNS): 3.84 µM | TGI (SNB-75 CNS): 18.8 µM | GI50 (HT29 colon): 2.65 µM | TGI (HT29 colon): 6.37 µM | GI50 (NCI-H522 lung): 1.62 µM | TGI (NCI-H522 lung): 3.34 µM | GI50 (KM12 colon): 10.8 µM | TGI (KM12 colon): 23.1 µM | GI50 (SK-OV-3 ovarian): 21.2 µM | TGI (SK-OV-3 ovarian): 45.4 µM | GI50 (NCI/ADR-RES ovarian): 11.3 µM | TGI (NCI/ADR-RES ovarian): 38.3 µM | GI50 (HOP-62 NSCLC): 21.8 µM | TGI (HOP-62 NSCLC): 40.2 µM | GI50 (CCRF-CEM leukemia): 1.51 µM | TGI (CCRF-CEM leukemia): 3.53 µM | GI50 (HCT-15 colon): 1.75 µM | TGI (HCT-15 colon): 3.44 µM | GI50 (UACC-62 melanoma): 6.12 µM | TGI (UACC-62 melanoma): 16.9 µM
